Here are results for one compound from article PMC11641657, “Innovative Approaches to Fucoxanthin Delivery: Characterization and Bioavailability of Solid Lipid Nanoparticles with Eco-Friendly Ingredients and Enteric Coating” (International Journal of Molecular Sciences, 2024).

The nature of data set [1]: In vitro release study (dialysis cassette, SGF then SIF). To be noted: 2 h SGF then SIF, 37 °C. The format is physicochemical. As for the experimental part: A 3 mL dispersion of solid lipid nanoparticles (SLNs) and fucoxanthin (FN) crystal at a concentration of 1 mg/mL/FN was placed in separate dialysis cassettes (Slide-A-Lyzer, Thermo Fisher Scientific, USA) with a molecular weight cutoff (MWCO) of 20 KDa. Each cassette was then immersed in 120 mL of release medium, consisting of 60% ethanol and 40% SGF, and maintained at 37 °C with a stirring speed of 120 rpm for the first 2 h. An appropriate amount of ethanol is necessary to be added to improve the release of FN in a water-based environment. Two hours later, SGF was replaced with SIF. Samples of 10 µL were periodically withdrawn from the internal compartment of the dialysis cassette, using methanol for extraction and dilution to determine the concentration of fucoxanthin. The remaining FN% was calculated with the following equation:(3) Releasing FX%=(1−Mt/M0)×100% where: M0 is the initial amount of FN, and Mt is the amount of FN calculated at a given incubation time.

On the set-up of data set [2]: method as in PMID 11694619. To be noted: one of the lowest among studied carotenoids; cited from earlier work.
Data set [3] is described as follows: Morphology by TEM and SEM. To be noted: in aqueous medium. The format is physicochemical. As for the experimental part: The samples were analyzed by means of a transmission electron microscopy (TEM) (Thermo Scientific Talos F200C) operating at 80 KV. For TEM analysis, the samples were placed on copper grids XP-UC300 (Shanghai X-Pivot Optoelectronic Technology Co., Ltd., Shanghai, China). Scanning Electron Microscopy (SEM) was used to determine the structure of the lyophilized FN–SLN. FN–SLN was dispersed in water and spread on a double-sided conducting adhesive tape, then was pasted on a metallic stub. After drying, it was coated ([…]) with gold in a sputter coating unit for […] using an accelerated voltage of 15 KeV.

Data set [4] is described as follows: In vitro dissolution test with enteric-coated capsule (SGF then SIF). The format is physicochemical. The procedure:
In this study, 7.8 mg of FN–SLNs and FN crystals were encapsulated in separate enteric-coated capsules. The capsules were placed in a glass bottle containing 2 mL of SGF and maintained at 37 °C, stirring at 120 rpm for the first 2 h. During this period, 100 µL samples were collected at predetermined intervals to assess the dissolution profiles of both formulations. Each time a sample was taken, 100 µL of the corresponding fluid was added to maintain the total volume. […] Following this, the SGF was replaced with 2 mL of SIF, and sampling continued at specified intervals. After each sampling, the collected solutions were centrifuged for 2 min (5000 rpm, 4 °C) to separate any undissolved particles. The supernatants were then extracted using methanol, allowing for the quantification of FN using high-performance liquid chromatography (HPLC).

A short description of data set [5]: Dispersion in ultra-pure water. To be noted: visual. The format is physicochemical.
The nature of data set [6]: In vivo pharmacokinetics test, oral dosing, FNOH in plasma by LC-MS/MS. The settings on record: after oral 10 mg/kg, parent FN.
Method: The qualification and quantification of FN and FNOH in plasma samples was conducted using Nexera LC-40 (Shimadzu UPLC, Kyoto, Japan) coupled with AB 6500+ Q-trap mass spectrometry (ABSCIEX, Framinham, MA, USA), which was equipped with electrospray ionization (ESI). The mobile phase was composed of H2O (A: 0.1% formic acid and acetonitrile (B, 0.1% formic acid; A:B = 10:90, v/v) at a flow rate of 0.35 mL/min, and the injection volume was 5 µL. The analysis utilized a Kinetex EVO C18 column (2.1 mm × 100 mm, 2.6 μm) Phenomenex, Torrance, CA, USA), which was maintained at a temperature of 25 °C. The detection of the compounds (Table 6) was performed in positive ion mode under the following conditions: curtain gas at 35.0 L/h, collision gas medium, ion spray voltage at 5000 V, temperature at 400 °C, and ion source gases 1 and 2 both at 55 L/h. […] The data was acquired using AB Analyst 1.6.1 software (ABSCIEX, USA).
They were provided with standard rat chow and water and libitum throughout the study. The rats were acclimatized to the laboratory environment for 7 days prior to the start of the experiment to minimize stress-induced effects. […]
The plasma drug concentration data were fitted using a non-compartmental model, and pharmacokinetic parameters were calculated via Phoenix WinNonlin 8.1 (Certara Corporation, Princeton, NJ, USA).

Take `CC(=O)O[C@H]1CC(C)(C)C(=C=C/C(C)=C/C=C/C(C)=C/C=C/C=C(C)/C=C/C=C(\C)C(=O)C[C@@]23O[C@]2(C)C[C@@H](O)CC3(C)C)[C@](C)(O)C1` [FN, Fucoxanthin]: the “Highest release rate in SGF and SIF” value in data set [1] came to 2.88%. For the same compound, the Bioavailability in data set [2] is reported as ~ 50 pmol/mg protein. The “Overall average length of crystals” value in data set [3] is “exceeding 5 µm”. Also, the “Release rate throughout the 8-h observation period” value in data set [4] is listed as “consistently low release rate”. Moreover, the Dispersion in water entry in data set [5] is reported as “inadequate”. For the same compound, the “Concentration of FN in rat plasma” value in data set [6] is “below the lowest limit of quantitation”.
